Results: PubChem BioAssay (NCI)
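Five concentrations, 48 hours, 96-well plates. At the TGI there is no net growth.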

Legend:
Experiment in all cases: DTP human tumour cell line panel, 48 h
COLO 205 colon = system: COLO 205 colon
HCT-116 colon = system: HCT-116 colon
K-562 leukemia = system: K-562 leukemia
NCI-H460 lung = system: NCI-H460 lung
HCC-2998 colon = system: HCC-2998 colon
CCRF-CEM leukemia = system: CCRF-CEM leukemia
SK-MEL-28 melanoma = system: SK-MEL-28 melanoma
ACHN renal = system: ACHN renal
SF-295 CNS = system: SF-295 CNS
HOP-62 NSCLC = system: HOP-62 NSCLC
NCI-H23 lung = system: NCI-H23 lung
A498 renal = system: A498 renal
LOX IMVI melanoma = system: LOX IMVI melanoma
SN12C renal = system: SN12C renal
MDA-MB-231 breast = system: MDA-MB-231 breast
KM12 colon = system: KM12 colon
PC-3 prostate = system: PC-3 prostate
SK-MEL-2 melanoma = system: SK-MEL-2 melanoma
UACC-257 melanoma = system: UACC-257 melanoma
NCI-H522 lung = system: NCI-H522 lung
NCI-H226 lung = system: NCI-H226 lung
OVCAR-4 ovarian = system: OVCAR-4 ovarian
OVCAR-3 ovarian = system: OVCAR-3 ovarian
RXF 393 renal = system: RXF 393 renal
SNB-75 CNS = system: SNB-75 CNS
SF-268 CNS = system: SF-268 CNS
MDA-N = system: MDA-N
DU-145 prostate = system: DU-145 prostate
HCT-15 colon = system: HCT-15 colon
SF-539 CNS = system: SF-539 CNS
SK-MEL-5 melanoma = system: SK-MEL-5 melanoma
M14 melanoma = system: M14 melanoma
OVCAR-5 ovarian = system: OVCAR-5 ovarian
OVCAR-8 ovarian = system: OVCAR-8 ovarian
T-47D breast = system: T-47D breast
A549 NSCLC = system: A549 NSCLC
MOLT-4 leukemia = system: MOLT-4 leukemia
UACC-62 melanoma = system: UACC-62 melanoma
NCI/ADR-RES ovarian = system: NCI/ADR-RES ovarian
EKVX NSCLC = system: EKVX NSCLC
U251 CNS = system: U251 CNS
SNB-19 CNS = system: SNB-19 CNS
HOP-92 NSCLC = system: HOP-92 NSCLC
MALME-3M melanoma = system: MALME-3M melanoma
HL-60(TB) leukemia = system: HL-60(TB) leukemia
SR leukemia = system: SR leukemia
786-0 renal = system: 786-0 renal
MCF7 breast = system: MCF7 breast
IGROV1 ovarian = system: IGROV1 ovarian
TK-10 renal = system: TK-10 renal
SK-OV-3 ovarian = system: SK-OV-3 ovarian
MDA-MB-435 = system: MDA-MB-435
SW-620 colon = system: SW-620 colon

O=c1oc2ccccc2c(O)c1/C=N/C(=S)Nc1ccccc1
TGI (COLO 205 colon): > 100 µM | TGI (HCT-116 colon): > 100 µM | TGI (K-562 leukemia): > 100 µM | TGI (NCI-H460 lung): > 100 µM | TGI (HCC-2998 colon): > 100 µM | TGI (CCRF-CEM leukemia): > 100 µM | TGI (SK-MEL-28 melanoma): > 100 µM | TGI (ACHN renal): > 100 µM | TGI (SF-295 CNS): > 100 µM | TGI (HOP-62 NSCLC): > 100 µM | TGI (NCI-H23 lung): > 100 µM | TGI (A498 renal): > 100 µM | TGI (LOX IMVI melanoma): > 100 µM | TGI (SN12C renal): > 100 µM | TGI (MDA-MB-231 breast): > 100 µM | TGI (KM12 colon): > 100 µM | TGI (PC-3 prostate): > 100 µM | TGI (SK-MEL-2 melanoma): 94.7 µM | TGI (UACC-257 melanoma): > 100 µM | TGI (NCI-H522 lung): > 100 µM | TGI (NCI-H226 lung): > 100 µM | TGI (OVCAR-4 ovarian): > 100 µM | TGI (OVCAR-3 ovarian): > 100 µM | TGI (RXF 393 renal): 0.833 µM | TGI (SNB-75 CNS): 97.8 µM | TGI (SF-268 CNS): > 100 µM | TGI (MDA-N): > 100 µM | TGI (DU-145 prostate): > 100 µM | TGI (HCT-15 colon): > 100 µM | TGI (SF-539 CNS): > 100 µM | TGI (SK-MEL-5 melanoma): > 100 µM | TGI (M14 melanoma): > 100 µM | TGI (OVCAR-5 ovarian): > 100 µM | TGI (OVCAR-8 ovarian): > 100 µM | TGI (T-47D breast): > 100 µM | TGI (A549 NSCLC): > 100 µM | TGI (MOLT-4 leukemia): > 100 µM | TGI (UACC-62 melanoma): > 100 µM | TGI (NCI/ADR-RES ovarian): > 100 µM | TGI (EKVX NSCLC): > 100 µM

COc1cccc2c1C(=O)c1c(O)c3c(c(O)c1C2=O)CC(O)(C(O)CO)CC3OC1CC2C(OC3COCC(C#N)N32)C(C)O1 (stereo not given)
TGI (COLO 205 colon): < 0.01 µM | TGI (U251 CNS): 0.13 µM | TGI (K-562 leukemia): < 0.01 µM | TGI (SNB-19 CNS): 0.0144 µM | TGI (HOP-92 NSCLC): < 0.01 µM | TGI (HCC-2998 colon): < 0.01 µM | TGI (CCRF-CEM leukemia): < 0.01 µM | TGI (SK-MEL-28 melanoma): < 0.01 µM | TGI (ACHN renal): 0.213 µM | TGI (SF-295 CNS): > 100 µM | TGI (HOP-62 NSCLC): 0.0432 µM | TGI (NCI-H23 lung): < 0.01 µM | TGI (MALME-3M melanoma): < 0.01 µM | TGI (A498 renal): < 0.01 µM | TGI (HL-60(TB) leukemia): < 0.01 µM | TGI (LOX IMVI melanoma): 0.0125 µM | TGI (SN12C renal): 1.47 µM | TGI (MDA-MB-231 breast): 0.0139 µM | TGI (PC-3 prostate): 0.0194 µM | TGI (SR leukemia): > 100 µM | TGI (UACC-257 melanoma): < 0.01 µM | TGI (NCI-H226 lung): < 0.01 µM | TGI (OVCAR-4 ovarian): < 0.01 µM | TGI (786-0 renal): 0.0282 µM | TGI (RXF 393 renal): < 0.01 µM | TGI (SF-268 CNS): 0.0324 µM | TGI (MDA-N): < 0.01 µM | TGI (DU-145 prostate): 0.406 µM | TGI (HCT-15 colon): 1.04 µM | TGI (SK-MEL-5 melanoma): < 0.01 µM | TGI (MCF7 breast): 2.15 µM | TGI (M14 melanoma): < 0.01 µM | TGI (OVCAR-5 ovarian): 4.31 µM | TGI (OVCAR-8 ovarian): 1.71 µM | TGI (IGROV1 ovarian): < 0.01 µM | TGI (T-47D breast): < 0.01 µM | TGI (A549 NSCLC): > 100 µM | TGI (TK-10 renal): < 0.01 µM | TGI (MOLT-4 leukemia): < 0.01 µM | TGI (SK-OV-3 ovarian): 0.0727 µM | TGI (UACC-62 melanoma): < 0.01 µM | TGI (MDA-MB-435): < 0.01 µM | TGI (SW-620 colon): 13.5 µM | TGI (NCI/ADR-RES ovarian): < 0.01 µM | TGI (EKVX NSCLC): 0.0644 µM
